Among the data in PubChem BioAssay (NCI) are TGI and GI50 values, retold here.

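Exposure lasted 48 hours, with cells grown in 96-well plates and compounds tested at five concentrations. Abbreviation: GI50, concentration required for 50% inhibition of growth. The concentration for full growth arrest is given as TGI.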

Among the test systems are ACHN renal; HCC-2998 colon; HCT-15 colon; HL-60(TB) leukemia; NCI-H23 lung; OVCAR-8 ovarian; SF-268 CNS; SF-539 CNS; SK-MEL-2 melanoma; SW-620 colon.
Holding throughout (assay): growth of human tumour cells (NCI), 48 h

With `NP(=O)(Oc1c2occc2cc2ccc(=O)oc12)N(CCCl)CCCl` (centres undefined), the TGI in the test on ACHN renal, in the test on HCC-2998 colon, with HCT-15 colon, with HL-60(TB) leukemia, in the test on NCI-H23 lung and in the test on OVCAR-8 ovarian was above 100 µM in each case. The TGI with SF-268 CNS, in the test with SF-539 CNS, in the test with SK-MEL-2 melanoma and with SW-620 colon was above 100 µM each time.
Regarding `CC1(C)C(=O)N(CCCCCCN2C(=O)C(C)(C)c3ccccc32)c2ccccc21`, the TGI in the test with ACHN renal was 97 µM; in the test on HCC-2998 colon, above 100 µM; in the test with HCT-15 colon it was above 100 µM; in the test on HL-60(TB) leukemia, 19.7 µM; in the test with NCI-H23 lung it was above 100 µM; in the test with OVCAR-8 ovarian, above 100 µM. Also, the TGI in the test on SF-268 CNS was above 100 µM; with SF-539 CNS it was above 100 µM; with SK-MEL-2 melanoma, above 100 µM; with SW-620 colon, 30.3 µM.
For `COc1cc2c3c(n(CCCNC(=O)OCC4c5ccccc5-c5ccccc54)c(=O)c2cc1OC)-c1cc2c(cc1/C3=C\CCNC(=O)OCC1c3ccccc3-c3ccccc31)OCO2`, the GI50 with ACHN renal is above 11.8 µM; in the test with HCC-2998 colon it was above 50 µM; in the test on HCT-15 colon, above 50 µM; in the test on HL-60(TB) leukemia, 18.1 µM; in the test on NCI-H23 lung, 0.921 µM; in the test on OVCAR-8 ovarian, above 35.3 µM. The GI50 with SF-268 CNS was 1.48 µM; with SF-539 CNS, 35.7 µM; in the test with SK-MEL-2 melanoma it was above 10.2 µM; in the test with SW-620 colon, above 24.1 µM. The TGI is above 35 µM with ACHN renal; above 50 µM with HCC-2998 colon; above 50 µM in the test on HCT-15 colon; above 50 µM in the test on HL-60(TB) leukemia; 9.54 µM in the test with NCI-H23 lung; above 50 µM with OVCAR-8 ovarian. In addition, the TGI in the test with SF-268 CNS is above 14 µM; in the test with SF-539 CNS, above 50 µM; in the test with SK-MEL-2 melanoma, above 21.6 µM; in the test with SW-620 colon, above 50 µM.
As for `CC1(C)SCc2nc3ncccc3n21`, the TGI in the test on ACHN renal, with HCC-2998 colon, in the test with HCT-15 colon, with HL-60(TB) leukemia, with NCI-H23 lung and in the test with OVCAR-8 ovarian was above 100 µM in each case. In addition, the TGI with SF-268 CNS, in the test on SF-539 CNS, with SK-MEL-2 melanoma and with SW-620 colon was above 100 µM in each case.
In the case of `Cc1cccc(NC(=O)C(=O)C(C(=O)c2ccc3ccccc3c2)C2OC(=O)c3ccccc32)c1C` (centres undefined), the TGI with ACHN renal is 81.4 µM; in the test on HCC-2998 colon, 19.5 µM; with HCT-15 colon, 41.9 µM; in the test with HL-60(TB) leukemia, 68.5 µM; in the test on NCI-H23 lung, 59.1 µM; in the test on OVCAR-8 ovarian, 71.8 µM. The TGI came to 53.6 µM with SF-268 CNS, 22.3 µM in the test with SF-539 CNS, 29.8 µM with SK-MEL-2 melanoma and 24.2 µM in the test on SW-620 colon.
Turning to `Cc1ccc(C2=C(c3ccccc3)C(Br)(c3ccc(C)cc3)C(c3ccccc3)=C2c2ccc(C)cc2)cc1`, the TGI in the test with ACHN renal, with HCC-2998 colon, in the test with HCT-15 colon, in the test on HL-60(TB) leukemia, with NCI-H23 lung and in the test with OVCAR-8 ovarian was above 100 µM throughout. The TGI with SF-268 CNS, in the test with SF-539 CNS, with SK-MEL-2 melanoma and in the test with SW-620 colon was above 100 µM throughout.
For the compound `CCCCCCCC/C=C/CCCCCCCC(=O)OC[C@H]1O[C@@H](n2ccc(N)nc2=O)C(F)(F)[C@@H]1O`, the GI50 in the test with ACHN renal is below 0.01 µM; in the test with HCC-2998 colon, 17.5 µM; with HCT-15 colon, 0.117 µM; in the test on HL-60(TB) leukemia it was 0.0217 µM; in the test on NCI-H23 lung, below 0.0143 µM; in the test with OVCAR-8 ovarian, below 0.01 µM. The GI50 was below 0.0224 µM in the test on SF-268 CNS, below 0.0183 µM in the test on SF-539 CNS, 14.2 µM in the test on SK-MEL-2 melanoma and 0.0759 µM in the test on SW-620 colon. In addition, the TGI was 6.07 µM in the test on ACHN renal; above 100 µM in the test with HCC-2998 colon; above 100 µM in the test on HCT-15 colon; 28 µM with HL-60(TB) leukemia; 21.1 µM in the test on NCI-H23 lung; 19.7 µM in the test with SF-268 CNS. Besides, the figures for the TGI in the test on SF-539 CNS, in the test with SK-MEL-2 melanoma and in the test with SW-620 colon were 1.17 µM, above 100 µM and above 100 µM, respectively.
As to `COc1cc2c(cc1OC)C(CC(=O)NN=C(C)C)NCC2` (centres undefined), the TGI in the test with ACHN renal, with HCC-2998 colon, in the test on HCT-15 colon, in the test with HL-60(TB) leukemia, with NCI-H23 lung and in the test with OVCAR-8 ovarian was above 100 µM in each case. The TGI in the test with SF-268 CNS, in the test on SF-539 CNS, in the test with SK-MEL-2 melanoma and in the test with SW-620 colon was above 100 µM in each case.
`NS(=O)(=O)c1ccc(NC2(C(=O)O)CCCC2)cc1`: the TGI with ACHN renal, with HCC-2998 colon, in the test on HCT-15 colon, in the test with HL-60(TB) leukemia, in the test with NCI-H23 lung and in the test on OVCAR-8 ovarian was above 100 µM throughout. Moreover, the TGI in the test on SF-268 CNS, in the test on SF-539 CNS, in the test on SK-MEL-2 melanoma and in the test with SW-620 colon was above 100 µM each time.
For the compound `C1=CC2SSSC2C1` (centres undefined), the TGI in the test with ACHN renal, in the test with HCC-2998 colon, in the test with HCT-15 colon, with HL-60(TB) leukemia, in the test with NCI-H23 lung and in the test on OVCAR-8 ovarian was above 100 µM each time. In addition, the TGI in the test with SF-268 CNS, in the test with SF-539 CNS, with SK-MEL-2 melanoma and in the test with SW-620 colon was above 100 µM in each case.
Regarding `C=C1C(=O)O[C@@H]2/C=C(\C)CC/C=C(/COC(C)=O)C[C@@H](OC(C)=O)[C@@H]12`, the TGI in the test with ACHN renal was 17 µM; with HCC-2998 colon, 30.2 µM; in the test with HCT-15 colon, 12.4 µM; in the test with HL-60(TB) leukemia it was 8.52 µM; in the test with NCI-H23 lung, 32.5 µM; in the test on OVCAR-8 ovarian, above 55.3 µM. For the same compound, the TGI with SF-268 CNS was 33.2 µM; in the test on SF-539 CNS, 36.3 µM; in the test on SK-MEL-2 melanoma, 31.8 µM; with SW-620 colon, 15.4 µM.
